Assay results from patent US20150371009A1, “DRUG IDENTIFICATION MODELS AND METHODS OF USING THE SAME TO IDENTIFY COMPOUNDS TO TREAT DISEASE” (priority 2014, published 2015).

How the values were obtained:
[1] = system: MCF7 breast cancer cell line (ER+); test: In vitro cell line proliferation assay (MTS), MCF7; type: cell-based; conditions: 96 hours; for inhibition of cell line proliferation: ER+ MCF7, escalating doses
Description: (§1) In vitro cell line proliferation assays. MCF7 and SK-BR-3 breast cancer cell lines were provided by the American Type Culture Collections (ATCC; Manassas, Va.) and cultured in complete medium (high glucose DMEM supplemented with 10% fetal bovine serum, L-glutamine, and pen/strep antibiotics). Drugs were purchased from Sigma-Aldrich (St. Louis, Mo.). Proliferation assays were performed as previously described with minor modifications. Cells were seeded at 5×10^3 cells per well in a 96 well plate in the morning. […] The plates were incubated at 37° C./5% CO2 for 96 hours. Cell proliferation was analyzed using MTS reagent (Promega; Madison, Wis.) according to manufacturer's protocol.
(§2) Tamoxifen was selected as a currently used breast cancer drug for comparison. […] Cell proliferation was measured using the MTS assay according to manufacturer's protocol.

[2] = system: SK-BR-3 breast cancer cell line (ER−); test: In vitro cell line proliferation assay (MTS), SKBR3; type: cell-based; conditions: 96 hours; for inhibition of cell line proliferation: ER− SKBR3, escalating doses
Description: as §1, §2

[3] = patients; donepezil doses up to 23 mg/day; cited from earlier work

4-hydroxytamoxifen [Drug 4OHtam]
inhibition of cell line proliferation [1]: dose dependent inhibition | IC50 ([1]; ER+ MCF7 cells, complete medium, MTS): 31.2 ± 4.9 µM | inhibition of cell line proliferation [2]: dose dependent inhibition | IC50 ([2]; ER− SKBR3 cells, complete medium, MTS): 55.7 ± 4.2 µM

COc1cc2c(cc1OC)C(=O)C(CC1CCN(Cc3ccccc3)CC1)C2 (racemic) [Donepezil, (RS)-2-[(1-benzyl-4-piperidyl)methyl]-5,6-dimethoxy-2,3-dihydroinden-1-one]
inhibition of cell line proliferation [1]: dose dependent inhibition | inhibition of cell line proliferation [2]: dose dependent inhibition

CC/C(=C(\c1ccccc1)c1ccc(OCCN(C)C)cc1)c1ccccc1 [Tamoxifen]
side effects / worst adverse drug reactions [3]: severe side effects including the development of endometrial cancer
